According to patent US12404241B2 (Celgene Corporation, priority 2018, dated 2025):

Molecular target: T1, AR (Homo sapiens, UniProt P10275)
T1 construct: endogenous in cells; host or cells: VCaP cells
T1 sequence (P10275 1-920): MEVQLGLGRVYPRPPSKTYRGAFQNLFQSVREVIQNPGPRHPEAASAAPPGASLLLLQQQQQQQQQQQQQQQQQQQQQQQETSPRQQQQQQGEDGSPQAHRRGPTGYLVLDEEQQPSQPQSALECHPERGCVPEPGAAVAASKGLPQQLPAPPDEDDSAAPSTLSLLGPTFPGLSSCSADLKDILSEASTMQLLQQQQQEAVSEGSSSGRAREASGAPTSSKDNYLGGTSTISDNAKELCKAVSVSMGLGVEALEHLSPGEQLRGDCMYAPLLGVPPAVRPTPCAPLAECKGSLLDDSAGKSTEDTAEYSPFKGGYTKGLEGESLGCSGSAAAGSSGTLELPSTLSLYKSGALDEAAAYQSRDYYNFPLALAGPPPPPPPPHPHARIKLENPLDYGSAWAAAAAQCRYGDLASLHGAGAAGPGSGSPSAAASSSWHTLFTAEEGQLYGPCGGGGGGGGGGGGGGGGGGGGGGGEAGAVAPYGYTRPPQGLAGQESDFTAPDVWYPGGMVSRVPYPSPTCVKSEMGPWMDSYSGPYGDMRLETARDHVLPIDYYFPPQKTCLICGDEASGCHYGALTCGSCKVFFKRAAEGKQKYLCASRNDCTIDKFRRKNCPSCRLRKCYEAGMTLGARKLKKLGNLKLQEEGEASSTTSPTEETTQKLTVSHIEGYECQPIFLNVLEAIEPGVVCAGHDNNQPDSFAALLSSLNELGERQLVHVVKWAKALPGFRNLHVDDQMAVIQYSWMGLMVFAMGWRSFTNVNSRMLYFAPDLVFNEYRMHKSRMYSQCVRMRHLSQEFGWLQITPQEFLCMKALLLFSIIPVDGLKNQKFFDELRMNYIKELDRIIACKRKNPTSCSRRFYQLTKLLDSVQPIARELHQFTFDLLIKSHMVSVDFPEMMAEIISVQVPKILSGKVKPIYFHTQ
Assay: VCAP AR Degradation Assay
Type: cell-based
Conditions: for Y (AR degradation efficiency, % of DMSO control): class symbols *; for DC50: class symbols A-C, read-out: DC50
How it was run: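 Compounds were plated as 10-point 1:3 series reaching 5 μM final, then VCaP cells were seeded onto them and incubated 24 h at 37 °C. Cells were lysed cold, and total AR was measured by sandwich ELISA relative to 0.1% DMSO wells.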

Compound | Y (AR degradation efficiency, % of DMSO control) | DC50 [µM]
CCc1cc(N2C(=S)N(c3ccc(C#N)c(C(F)(F)F)c3)C(=O)C2(C)C)ccc1OCCN1CCN([C@H](C)C(=O)Nc2cccc(NC3CCC(=O)NC3=O)c2)[C@@H](C)C1 (stereo partly drawn) [Example 274, (2R)-2-((S)-4-(2-(4-(3-(4-cyano-3-(trifluoromethyl)phenyl)-5,5-dimethyl-4-oxo-2-thioxoimidazolidin-1-yl)-2-ethylphenoxy)ethyl)-2-methylpiperazin-1-yl)-N-(3-(2,6-dioxopiperidin-3-ylamino)phenyl)propanamide] | * (0<Y<=25%) | < 0.1
CCc1cc(N2C(=S)N(c3ccc(C#N)c(C(F)(F)F)c3)C(=O)C2(C)C)ccc1OCCN1CCN([C@@H](C)C(=O)Nc2cccc(NC3CCC(=O)NC3=O)c2)[C@@H](C)C1 (stereo partly drawn) [Example 275, (2S)-2-((S)-4-(2-(4-(3-(4-cyano-3-(trifluoromethyl)phenyl)-5,5-dimethyl-4-oxo-2-thioxoimidazolidin-1-yl)-2-ethylphenoxy)ethyl)-2-methylpiperazin-1-yl)-N-(3-(2,6-dioxopiperidin-3-ylamino)phenyl)propanamide] | * (0<Y<=25%) | < 0.1
C[C@@H]1CN(CCOc2ccc(N3C(=S)N(c4ccc(C#N)c(C(F)(F)F)c4)C(=O)C3(C)C)cc2Cl)CCN1CC(=O)Nc1cccc(NC2CCC(=O)NC2=O)c1 (stereo partly drawn) [Example 276, 2-((R)-4-(2-(2-chloro-4-(3-(4-cyano-3-(trifluoromethyl)phenyl)-5,5-dimethyl-4-oxo-2-thioxoimidazolidin-1-yl)phenoxy)ethyl)-2-methylpiperazin-1-yl)-N-(3-(2,6-dioxopiperidin-3-ylamino)phenyl)acetamide] | * (0<Y<=25%) | < 0.1
C[C@@H]1CN(CCOc2ccc(N3C(=S)N(c4ccc(C#N)c(C(F)(F)F)c4)C(=O)C3(C)C)cc2F)CCN1CC(=O)Nc1cccc(NC2CCC(=O)NC2=O)c1 (stereo partly drawn) [Example 277, 2-((R)-4-(2-(4-(3-(4-cyano-3-(trifluoromethyl)phenyl)-5,5-dimethyl-4-oxo-2-thioxoimidazolidin-1-yl)-2-fluorophenoxy)ethyl)-2-methylpiperazin-1-yl)-N-(3-(2,6-dioxopiperidin-3-ylamino)phenyl)acetamide] | *** (35%<Y<50%) | < 0.1
C[C@@H]1CN(CCOc2ccc(N3C(=S)N(c4ccc(C#N)c(C(F)(F)F)c4)C(=O)C3(C)C)cc2F)C[C@H](C)N1CC(=O)Nc1cccc(NC2CCC(=O)NC2=O)c1 (stereo partly drawn) [Example 278, 2-((2S,6R)-4-(2-(4-(3-(4-cyano-3-(trifluoromethyl)phenyl)-5,5-dimethyl-4-oxo-2-thioxoimidazolidin-1-yl)-2-fluorophenoxy)ethyl)-2,6-dimethylpiperazin-1-yl)-N-(3-(2,6-dioxopiperidin-3-ylamino)phenyl)acetamide] | * (0<Y<=25%) | < 0.1
CCc1cc(N2C(=S)N(c3ccc(C#N)c(C(F)(F)F)c3)C(=O)C2(C)C)ccc1CCCN1CCN(CC(=O)Nc2cccc(NC3CCC(=O)NC3=O)c2)[C@@H](C)C1 (stereo partly drawn) [Example 279, 2-((S)-4-(3-(4-(3-(4-cyano-3-(trifluoromethyl)phenyl)-5,5-dimethyl-4-oxo-2-thioxoimidazolidin-1-yl)-2-ethylphenyl)propyl)-2-methylpiperazin-1-yl)-N-(3-(2,6-dioxopiperidin-3-ylamino)phenyl)acetamide] | * (0<Y<=25%) | < 0.1
CCc1cc(N2C(=S)N(c3ccc(C#N)c(C(F)(F)F)c3)C(=O)C2(C)C)ccc1OCCN1CCN([C@H](C)C(=O)Nc2cccc(NC3CCC(=O)NC3=O)c2)[C@H](C)C1 (stereo partly drawn) [Example 280, (2R)-2-((R)-4-(2-(4-(3-(4-cyano-3-(trifluoromethyl)phenyl)-5,5-dimethyl-4-oxo-2-thioxoimidazolidin-1-yl)-2-ethylphenoxy)ethyl)-2-methylpiperazin-1-yl)-N-(3-(2,6-dioxopiperidin-3-ylamino)phenyl)propanamide] | *** (35%<Y<50%) | 0.1 to 0.5
CCc1cc(N2C(=S)N(c3ccc(C#N)c(C(F)(F)F)c3)C(=O)C2(C)C)ccc1OCCN1CCN([C@@H](C)C(=O)Nc2cccc(NC3CCC(=O)NC3=O)c2)[C@H](C)C1 (stereo partly drawn) [Example 281, (2S)-2-((R)-4-(2-(4-(3-(4-cyano-3-(trifluoromethyl)phenyl)-5,5-dimethyl-4-oxo-2-thioxoimidazolidin-1-yl)-2-ethylphenoxy)ethyl)-2-methylpiperazin-1-yl)-N-(3-(2,6-dioxopiperidin-3-ylamino)phenyl)propanamide] | * (0<Y<=25%) | < 0.1
C[C@@H]1CN(CCOc2ccc(N3C(=S)N(c4ccc(C#N)c(C(F)(F)F)c4)C(=O)C3(C)C)cc2Cl)C[C@H](C)N1CC(=O)Nc1cccc(NC2CCC(=O)NC2=O)c1 (stereo partly drawn) [Example 282, 2-((2S,6R)-4-(2-(2-chloro-4-(3-(4-cyano-3-(trifluoromethyl)phenyl)-5,5-dimethyl-4-oxo-2-thioxoimidazolidin-1-yl)phenoxy)ethyl)-2,6-dimethylpiperazin-1-yl)-N-(3-(2,6-dioxopiperidin-3-ylamino)phenyl)acetamide] | * (0<Y<=25%) | < 0.1
CCc1cc(N2C(=S)N(c3ccc(C#N)c(C(F)(F)F)c3)C(=O)C2(C)C)ccc1OCCN1C[C@@H](C)N(CC(=O)Nc2cc(F)cc(NC3CCC(=O)NC3=O)c2)[C@@H](C)C1 (stereo partly drawn) [Example 283, 2-((2R,6S)-4-(2-(4-(3-(4-cyano-3-(trifluoromethyl)phenyl)-5,5-dimethyl-4-oxo-2-thioxoimidazolidin-1-yl)-2-ethylphenoxy)ethyl)-2,6-dimethylpiperazin-1-yl)-N-(3-(2,6-dioxopiperidin-3-ylamino)-5-fluorophenyl)acetamide] | * (0<Y<=25%) | < 0.1
CCc1cc(N2C(=S)N(c3ccc(C#N)c(C(F)(F)F)c3)C(=O)C2(C)C)ccc1CCCN1C[C@@H](C)N(CC(=O)Nc2cccc(NC3CCC(=O)NC3=O)c2)[C@@H](C)C1 (stereo partly drawn) [Example 284, 2-((2R,6S)-4-(3-(4-(3-(4-cyano-3-(trifluoromethyl)phenyl)-5,5-dimethyl-4-oxo-2-thioxoimidazolidin-1-yl)-2-ethylphenyl)propyl)-2,6-dimethylpiperazin-1-yl)-N-(3-(2,6-dioxopiperidin-3-ylamino)phenyl)acetamide] | * (0<Y<=25%) | < 0.1
CCc1cc(N2C(=S)N(c3ccc(C#N)c(C(F)(F)F)c3)C(=O)C2(C)C)ccc1OCCN1C[C@@H](C)N(CC(=O)Nc2cccc(N[C@H]3CCC(=O)NC3=O)c2)[C@@H](C)C1 [Example 285, 2-((2R,6S)-4-(2-(4-(3-(4-cyano-3-(trifluoromethyl)phenyl)-5,5-dimethyl-4-oxo-2-thioxoimidazolidin-1-yl)-2-ethylphenoxy)ethyl)-2,6-dimethylpiperazin-1-yl)-N-(3-((S)-2,6-dioxopiperidin-3-ylamino)phenyl)acetamide] | * (0<Y<=25%) | < 0.1
CCc1cc(N2C(=S)N(c3ccc(C#N)c(C(F)(F)F)c3)C(=O)C2(C)C)ccc1OCCN1C[C@@H](C)N(CC(=O)Nc2cccc(N[C@@H]3CCC(=O)NC3=O)c2)[C@@H](C)C1 [Example 286, 2-((2R,6S)-4-(2-(4-(3-(4-cyano-3-(trifluoromethyl)phenyl)-5,5-dimethyl-4-oxo-2-thioxoimidazolidin-1-yl)-2-ethylphenoxy)ethyl)-2,6-dimethylpiperazin-1-yl)-N-(3-((R)-2,6-dioxopiperidin-3-ylamino)phenyl)acetamide] | * (0<Y<=25%) | < 0.1
C[C@@H]1CN(CCCc2ccc(N3C(=S)N(c4ccc(C#N)c(C(F)(F)F)c4)C(=O)C3(C)C)cc2F)C[C@H](C)N1CC(=O)Nc1cccc(NC2CCC(=O)NC2=O)c1 (stereo partly drawn) [Example 287, 2-((2R,6S)-4-(3-(4-(3-(4-cyano-3-(trifluoromethyl)phenyl)-5,5-dimethyl-4-oxo-2-thioxoimidazolidin-1-yl)-2-fluorophenyl)propyl)-2,6-dimethylpiperazin-1-yl)-N-(3-(2,6-dioxopiperidin-3-ylamino)phenyl)acetamide] | * (0<Y<=25%) | < 0.1
